# Legend:
# PKA = experiment: dbcAMP-stimulated PKA activity in Y1 cells (PepTag assay); format: cell-based, mouse; parameters: dose or concentration left out as unconfirmed
# Protocol: Y1 cells were cultured in 6-well plates (2×10^5 cells per well) and treated as described above for steroid biosynthesis. At the end of the incubation, cells were washed twice with PBS and proteins were extracted using an extraction buffer (25 mM tris-HCl pH 7.4, 0.5 mM EDTA, 0.5 mM EGTA, 10 mM-mercaptoethanol, 0.5 mM PMSF, 1 g/ml leupeptin, and 1 g/ml aprotinin). After centrifugation at 18,500 g for 15 minutes, the supernatants were kept for PKA activity assay. Samples were processed using the PepTag assay for non-radioactive detection of PKA activity following the manufacturer's recommendations (Promega Corporation, Madison, Wis.).
# HMG-CoA reductase mRNA = HMG-CoA reductase mRNA expression by Q-PCR in Y1 cells; format: cell-based, mouse; conditions: for dbcAMP-induced HMG-CoA reductase mRNA levels: Y1 cells, 24 hours pretreatment, dbcAMP 24 hours
# Protocol: After treatment, cells were stimulated with 1 mM dbcAMP for 24 hours. At the end of the incubation, total cell RNA was extracted using. RNA STAT-60 (Tel-Test Inc, Friendswood, Tex.) according to the manufacturer's instructions. HMG-CoA reductase mRNA was quantified by Q-PCR using the ABI Prism 7700 sequence detection system (Perlin-Elmer/Applied Biosystems, Foster City, Calif.). RT reaction was performed using TaqMan® Reverse Transcription Reagents with 1 g total RNA and random hexamers as primers for each reaction according to the manufacturer's instructions. For quantifying mouse HMG-CoA reductase mRNA with Q-PCR, the primers were designed according to GenBank Accession Number BC 019782 using PE/AB Primer Express software, which is specifically designed for the selection of primers and probes. The forward primer was 5′-[…]-3′ (22 nucleotides) and reverse primer was 5′-[…]-3′ (23 nucleotides), respectively. The primers were synthesized by Bio-Synthesis Inc. (Lewisville, Tex.). Reactions were performed in a reaction mixture consisting of a 20 l volume solution containing 10 l SYBR® Green PCR Master Mix and 1 l primers mix (5 M each) with 2 l cDNA.
# [1] = test system: peripheral-type benzodiazepine receptor (PBR); experiment: PBR radioligand binding assay ([3H]PK 11195) in procaine-treated cells; conditions: 1 μM procaine, 48 hour treatment
# Protocol: Radioligand binding assays were performed as previously described (Papadopoulos et al., 1990, J. Biol. Chem. 265, 3772-3779). In brief, cells were scrapped from culture flasks into PBS, dispersed by trituration, and centrifuged at 1200×g for 5 min. The cells were resuspended in PBS to a final concentration of 10-50 μg protein/100 μl. Saturation binding studies were performed in a final volume of 300 μl in the presence of the radioligand [^3H]PK 11195 (specific activity 83.5 Ci/mmol; NEN Life Science Products) at the indicated concentrations. Nonspecific binding was determined in the presence of 6 μM of the homologous non-radioactive ligand. After 180 min incubation at 4° C., the assays were stopped by filtration through Whatman GF/C filters (Clifton, N.J.) and washed with 10 ml PBS. Bound radioactivity was determined by liquid scintillation counting. Bound [^3H]PK 11195 and [^3H]cholesterol were quantified by liquid scintillation spectrometry. Dissociation constants (Kd), the number of binding sites (Bmax) and Hill coefficients (nH) for PK 11195 and cholesterol were determined by Curve-Fit (Prism version 3.0, GraphPad Software Inc., San Diego, Calif.).
structure (smiles),measurement,setting,value
CCN(CC)CCOC(=O)c1ccc(N)cc1 [procaine],dbcAMP-stimulated PKA activity,PKA,did not affect
same,dbcAMP-induced HMG-CoA reductase mRNA levels,HMG-CoA reductase mRNA,reduced in a dose-dependent manner
same,dbcAMP-induced HMG-CoA reductase mRNA levels,HMG-CoA reductase mRNA; listed as Procaine,inhibited in a dose-dependent manner
same,basal HMG-CoA mRNA levels,HMG-CoA reductase mRNA; no dbcAMP,without affecting
same,ligand binding characteristics / expression of PBR,[1],did not affect
same,PBR Kd of [3H]PK 11195 in procaine-treated cells,"[1]; control 1.8 nM, Kd of the radioligand, not of procaine",1.7 nM
same,PBR Bmax ([3H]PK 11195) in procaine-treated cells,[1]; control 27±3,29±4 pmol/mg protein
same,ligand binding characteristics / expression of PBR,[1]; listed as Procaine,had no effect
